What was measured:
cocklebur = test: Test B pre-/postemergence herbicide test; type: in vivo, Xanthium strumarium; conditions: for Cocklebur plant response rating: postemergence, scale 0 (no effect) to 100 (complete control)
How it was run: (§1)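 Formulation: non-phytotoxic solvent mix with surfactant. Timing: preemergence on seed and postemergence on 2–18 cm plants, applied concurrently. Readout after 13–15 d greenhouse: visual 0–100 control rating against controls.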

rice [1] = test: Test B flooded paddy test; type: in vivo, Oryza sativa; conditions: 1000 g ai/ha, scale 0 to 100 (0 no effect, 100 complete control)
How it was run: (§2)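 Greenhouse test; postemergence application to plants at 1–4 leaves (2–18 cm); paddy species at 2 leaves; evaluated visually vs controls at 13–15 days; scale 0–100 (100 = complete control).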

giant foxtail = test: Test B pre-/postemergence herbicide test; type: in vivo, Setaria faberi; conditions: for Foxtail, Giant plant response rating: postemergence, scale 0 (no effect) to 100 (complete control)
How it was run: (§3)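 Greenhouse pot assay with simultaneous preemergence (treated seed) and postemergence (2–18 cm seedlings) applications of surfactant-containing, non-phytotoxic solvent formulations. Response scored visually 13–15 days later on a 0–100 scale, 100 meaning complete control.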

corn = test: Test B pre-/postemergence herbicide test; type: in vivo, Zea mays; conditions: for Corn plant response rating: postemergence, scale 0 (no effect) to 100 (complete control)
How it was run: as §3

barnyardgrass [2] = test: Test B flooded paddy test; type: in vivo, Echinochloa crus-galli; conditions: 1000 g ai/ha, scale 0 to 100 (0 no effect, 100 complete control)
How it was run: (§4)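 Scale 0–100: zero equals no visible effect, 100 complete control, judged by eye relative to controls. Timing: 13 to 15 days in greenhouse post-treatment. Growth stage at spraying: two leaves (paddy) or one to four leaves, 2–18 cm (postemergence).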

blackgrass = test: Test B postemergence herbicide test; type: in vivo, Alopecurus myosuroides; conditions: postemergence, visual rating, scale 0 (no effect) to 100 (complete control)
How it was run: as §4

wild oat = test: Test B postemergence herbicide test; type: in vivo, Avena fatua; conditions: postemergence, visual rating, scale 0 (no effect) to 100 (complete control)
How it was run: as §2

large crabgrass = test: Test B pre-/postemergence herbicide test; type: in vivo, Digitaria sanguinalis; conditions: for Crabgrass, Large plant response rating: postemergence, scale 0 (no effect) to 100 (complete control)
How it was run: as §3

[3] = test system: small flower umbrella sedge; test: Test B flooded paddy test; type: in vivo, Cyperus difformis; conditions: 1000 g ai/ha, scale 0 to 100 (0 no effect, 100 complete control)
How it was run: as §4

lambsquarters = test: Test B pre-/postemergence herbicide test; type: in vivo, Chenopodium album; conditions: for Lambsquarters plant response rating: postemergence, scale 0 (no effect) to 100 (complete control)
How it was run: as §3

wheat = test: Test B postemergence herbicide test; type: in vivo, Triticum aestivum; set-up: key to Wheat plant response rating: 0 = no effect, 100 = complete control; conditions: postemergence, visual rating, scale 0 (no effect) to 100 (complete control)
How it was run: as §2

morningglory = test: Test B pre-/postemergence herbicide test; type: in vivo, Ipomoea coccinea; conditions: for Morningglory plant response rating: postemergence, scale 0 (no effect) to 100 (complete control)
How it was run: as §1

rice [4] = test: Test B pre-/postemergence herbicide test; type: in vivo, Oryza sativa; conditions: 0 = no effect, 100 = complete control, preemergence
Text: Seeds selected from barnyardgrass (Echinochloa crus-galli (L.) Beauv.), Surinam grass (Urochloa decumbens (Staph) R. D. Webster, previously named Brachiaria decumbens Stapf), cocklebur (Xanthium strumarium L.), corn (Zea mays L.), large crabgrass (Digitaria sanguinalis (L.) Scop.), giant foxtail (Setaria faberi Herim.), lambsquarters (Chenopodium album L.), morningglory (Ipomoea coccinea L.), pigweed (Amaranthus retroflexus L.), rice (Oryza sativa L.) and velvetleaf (Abutilon theophrasti Medik.) were planted and treated preemergence with test chemicals formulated in a non-phytotoxic solvent mixture which included a surfactant.
At the same time, plants selected from these crop and weed species and also blackgrass (Alopecurus myosuroides Huds.), wheat (Triticum aestivum L.) and wild oat (Avena fatua L.) were treated with postemergence applications of test chemicals formulated in the same manner. Plants ranged in height from 2 to 18 cm (1- to 4-leaf stage) for postemergence treatments. Plant species in the flooded paddy test consisted of rice (Oryza sativa L.), small flower umbrella sedge (Cyperus difformis L.), ducksalad (Heteranthera limosa (Sw.) Willd.) and barnyardgrass (Echinochloa crus-galli (L.) Beauv.) grown to the 2-leaf stage for testing. Treated plants and controls were maintained in a greenhouse for 13 to 15 days, after which time all species were compared to controls and visually evaluated. Plant response ratings, summarized in Table B, are based on a scale of 0 to 100 where 0 is no effect and 100 is complete control. A dash (-) response means no test result.

pigweed = test: Test B pre-/postemergence herbicide test; type: in vivo, Amaranthus retroflexus; conditions: for Pigweed plant response rating: postemergence, scale 0 (no effect) to 100 (complete control)
How it was run: as §3

Surinam grass = test: Test B pre-/postemergence herbicide test; type: in vivo, Urochloa decumbens; conditions: for Surinam Grass plant response rating: postemergence, scale 0 (no effect) to 100 (complete control)
How it was run: as §3

velvetleaf = test: Test B pre-/postemergence herbicide test; type: in vivo, Abutilon theophrasti; conditions: for Velvetleaf plant response rating: postemergence, scale 0 (no effect) to 100 (complete control)
How it was run: as §3

ducksalad = test: Test B flooded paddy test; type: in vivo, Heteranthera limosa; conditions: 1000 g ai/ha, scale 0 to 100 (0 no effect, 100 complete control)
How it was run: as §4

barnyardgrass [5] = test: Test B pre-/postemergence herbicide test; type: in vivo, Echinochloa crus-galli; conditions: for Barnyardgrass plant response rating: postemergence, scale 0 (no effect) to 100 (complete control)
How it was run: as §1

[6] = 125 g ai/ha, 0 = no effect, 100 = complete control, preemergence
[7] = 500 g ai/ha, visual rating, 0 = no effect, 100 = complete control, preemergence

## CCOC(=O)c1ccnc(NC(=O)c2cn(C(C)(C)C)nc2CC)c1 [Compound 238]
cocklebur; [6]
  Cocklebur plant response rating (0 to 100 scale): 0
cocklebur; [7]
  Plant response rating, Cocklebur: 0
cocklebur; 125 g ai/ha, visual rating
  Cocklebur plant response rating: 0
cocklebur; 500 g ai/ha, visual rating
  Cocklebur plant response rating: 20
Rice [1]
  Rice plant response rating: 30
Giant foxtail; [6]
  Foxtail, Giant plant response rating (0 to 100 scale): 0
Giant foxtail; [7]
  Plant response rating, Foxtail, Giant: 0
Giant foxtail; 125 g ai/ha, visual rating
  Foxtail, Giant plant response rating: 0
Giant foxtail; 500 g ai/ha, visual rating
  Foxtail, Giant plant response rating: 0
corn; [6]
  Corn plant response rating (0 to 100 scale): 0
corn; [7]
  Plant response rating, Corn: 0
corn; 125 g ai/ha, visual rating
  Corn plant response rating: 0
corn; 500 g ai/ha, visual rating
  Corn plant response rating: 0
Barnyardgrass [2]
  Barnyardgrass plant response rating: 10
blackgrass; 125 g ai/ha
  Blackgrass plant response rating: 0
blackgrass; 500 g ai/ha
  Blackgrass plant response rating: 10
Wild oat; 125 g ai/ha
  Oat, Wild plant response rating: 0
Wild oat; 500 g ai/ha
  Oat, Wild plant response rating: 10
Large crabgrass; [6]
  Crabgrass, Large plant response rating (0 to 100 scale): 0
Large crabgrass; [7]
  Plant response rating, Crabgrass, Large: 0
Large crabgrass; 125 g ai/ha, visual rating
  Crabgrass, Large plant response rating: 0
Large crabgrass; 500 g ai/ha, visual rating
  Crabgrass, Large plant response rating: 0
[3]
  Sedge, Umbrella plant response rating: 80
lambsquarters; [6]
  Lambsquarters plant response rating (0 to 100 scale): 0
lambsquarters; [7]
  Plant response rating, Lambsquarters: 0
lambsquarters; 125 g ai/ha, visual rating
  Lambsquarters plant response rating: 0
lambsquarters; 500 g ai/ha, visual rating
  Lambsquarters plant response rating: 0
wheat; 125 g ai/ha
  Wheat plant response rating: 0
wheat; 500 g ai/ha
  Wheat plant response rating: 20
morningglory; [6]
  Morningglory plant response rating (0 to 100 scale): 0
morningglory; [7]
  Plant response rating, Morningglory: 0
morningglory; 125 g ai/ha, visual rating
  Morningglory plant response rating: 0
morningglory; 500 g ai/ha, visual rating
  Morningglory plant response rating: 0
Rice [4]; 125 g ai/ha
  Rice plant response rating (0 to 100 scale): 0
Rice [4]; 500 g ai/ha, visual rating
  Plant response rating, Rice: 0
pigweed; [6]
  Pigweed plant response rating (0 to 100 scale): 0
pigweed; [7]
  Plant response rating, Pigweed: 0
pigweed; 125 g ai/ha, visual rating
  Pigweed plant response rating: 0
pigweed; 500 g ai/ha, visual rating
  Pigweed plant response rating: 0
Surinam grass; [6]
  Surinam Grass plant response rating (0 to 100 scale): 0
Surinam grass; [7]
  Plant response rating, Surinam Grass: 0
Surinam grass; 125 g ai/ha, visual rating
  Surinam Grass plant response rating: 0
Surinam grass; 500 g ai/ha, visual rating
  Surinam Grass plant response rating: 0
velvetleaf; [6]
  Velvetleaf plant response rating (0 to 100 scale): 0
velvetleaf; [7]
  Plant response rating, Velvetleaf: 0
velvetleaf; 125 g ai/ha, visual rating
  Velvetleaf plant response rating: 0
velvetleaf; 500 g ai/ha, visual rating
  Velvetleaf plant response rating: 10
ducksalad
  Ducksalad plant response rating: 0
Barnyardgrass [5]; [6]
  Barnyardgrass plant response rating (0 to 100 scale): 0
Barnyardgrass [5]; [7]
  Plant response rating, Barnyardgrass: 0
Barnyardgrass [5]; 125 g ai/ha, visual rating
  Barnyardgrass plant response rating: 0
Barnyardgrass [5]; 500 g ai/ha, visual rating
  Barnyardgrass plant response rating: 0
